{"source": "patent US5939387A", "about": "“Method of treating insulin resistance” (Eli Lilly and Company, priority 1996, dated 1999)", "key": {"[1]": {"test_system": "Male Fischer 344 rats 26 months of age", "test": "Aged Rat Study (oral glucose tolerance test)", "format": "in vivo", "settings": "2 μg/kg sc daily for 6 weeks", "description": "Animals: Male Fischer 344 rats 26 months of age were randomly assigned to three treatment groups (8 animals per group). Animals were housed in individual cages in a temperature and humidity-controlled environment and exposed to 12 h light/12 h dark lighting schedule (lights on at 0600 h). Animals were fed ad libitum on a daily basis.\nTreatments: Animals received daily injection (sc., 0.5 ml at 0700 h) of vehicle; active compound, 2 μg/kg body weight for six weeks. At the end of the treatment period and one day prior to testing, food was removed and animals were fasted for 16 hours. Glucose tolerance test was initiated at 0700 h in conscious and freely moving rats. Blood was collected by tail clipping method. A control blood sample (0.2 mL) was collected before ingesting glucose (2.5 g/kg body weight). Subsequent blood samples were collected at 30, 60, 90 and 120 min. after glucose ingestion. Blood was collected on ice and glucose concentrations were determined by bichromatic analysis using the IL Monarch Chemistry Systems (Cat. # 35199, Instrumentation Laboratory, Mass.). Plasma was separated and samples were kept frozen (-20° C.) until assay for insulin concentrations using double antibody radioimmuonoassay. […]\nArea under the response curve was calculated using the trapezoidal method and data were analyzed by ANOVA with Duncan's multiple range test."}, "[2]": {"test_system": "Zucker Diabetic Fatty (ZDF/Gmi-fa/fa) male rats", "test": "ZDF Male Rat Assay", "format": "in vivo", "settings": "for Total Body Mass, final weight / Epididymal Fat weight / Lean Mass, final weight: ZDF rats; for Total Body Mass, final weight: mean of 8; for Epididymal Fat weight / Lean Mass, final weight: 6 to 14 weeks of age", "description": "A growth hormone releasing agent is continuously administered to Zucker diabetic male rats subcutaneously by use of an \"Alzet\" mini osmotic pump. The treatment was started at approximately 6 weeks of age and continued for approximately 6-8 weeks. The experiment was designed to allow the study of changes in the typical plasma glucose and insulin level profiles with the progression of the diabetic disease state.\nZucker Diabetic Fatty (ZDF/Gmi™-fa/fa) male rats were obtained from Genetic Models Inc. (Indianapolis, Ind.). The rats were maintained on Purina Formula 5008 rat chow (Purina Mills, Inc., St. Louis, Mo.) and housed in a light controlled room of alternating 12 hour cycles of light and dark. Rats were singly housed and given free access to food and water. At 5 weeks of age, an oral glucose tolerance test (OGTT: 16 hr fast, oral glucose concentration at 2.5 grams/kg body weight; Butler dextrose solution 50%, lot # 3342, Ft. Collins, Colo.; time points at 0, 30, 60, and 120 minutes) was given to each rat and their plasma assayed for glucose and insulin levels. At 6 weeks of age Alzet minipumps, containing a 1.5 inch polyethylene tube extensions (Model 2001, lot # 040401, 1.0 μl/hr, 7 days; Alza Corporation, Palo Alto, Calif.) were implanted subcutaneously. Animals were anesthetized with isoflurane at approximately 2-3% in oxygen. Each rat was shaved and a Povidone Iodine scrub was used at the site of implantation. A small incision was made above and just posterior to the shoulder. A small pocket was made and the pump placed in so the delivery port was away from the incision. The incision was then closed with wound clips and the rat observed and kept warm until awake. At the end of 7 days the pumps were removed from the rat and a new pump implanted subcutaneously as previously described. Pumps contained vehicle (PBS) or a growth hormone releasing agent (8 rats/group).\nThe GH releasing agent was prepared at concentrations of 625 and 62.5 μg/mL and loaded into Alzet pumps using sterile techniques. Body weight and food consumption were monitored once a week. Rats were bled from the tail for plasma glucose, insulin, and growth hormone levels weekly. One week prior to sacrificing the rats, an I.P. injection of tetracycline was given to each rat and then again the day before sacrificing (20 mg/mL; 0.5 mL/animal) to determine bone growth.\nAssays: Plasma glucose concentrations were determined by the glucose hexokinase method (IL Test GLucose, lot # I1040502; Instrumentation Laboratory Company, Lexington, Mass.) with a model 2000 Monarch (Instrumentation Laboratory Company, Lexington, Mass.). Insulin was determined with a Coat-a-Count kit (Diagnostic Products Corporation, Los Angeles, Calif.) using a rat insulin standard (Lilly Research Laboratories, Indianapolis, Ind.). Glucagon was assayed with a double antibody procedure using guinea pig anti-glucagon (Catalog no. 1032; Linco Research, St. Louis, Mo.), goat anti-guinea pig (lot # T67-7GZ-237); Lilly Research Laboratories, Indianapolis, Ind.) and ^125 I-glucagon (DuPont New England Nuclear, Wilmington, Del.). Growth hormone was assayed using rat growth hormone standard (purchased from Parlow, Torrance Calif.; rGH-RP-2, lot AFP-3190B), anti rGH (purchased from Parlow, Torrance Calif.; rGH-s-r, lot AFP411S), ^125 I-rGH (Corning-Hazelton, Vienna, Va.) and protein A IGSL100 (Enzyme Center, Malden, Mass.)."}, "[3]": {"settings": "age 6 weeks, 0.001 μg/min continuous infusion"}, "[4]": {"settings": "age 6 weeks, 0.01 μg/min continuous infusion"}, "[5]": {"settings": "age 7 weeks, 0.001 μg/min continuous infusion"}, "[6]": {"settings": "age 7 weeks, 0.01 μg/min continuous infusion"}, "[7]": {"settings": "age 8 weeks, 0.001 μg/min continuous infusion"}, "[8]": {"settings": "age 8 weeks, 0.01 μg/min continuous infusion"}, "[9]": {"settings": "age 9 weeks, 0.001 μg/min continuous infusion"}, "[10]": {"settings": "age 9 weeks, 0.01 μg/min continuous infusion"}, "[11]": {"settings": "age 10 weeks, 0.001 μg/min continuous infusion"}, "[12]": {"settings": "age 10 weeks, 0.01 μg/min continuous infusion"}, "[13]": {"settings": "age 11 weeks, 0.001 μg/min continuous infusion"}, "[14]": {"settings": "age 11 weeks, 0.01 μg/min continuous infusion"}, "[15]": {"settings": "age 12 weeks, 0.001 μg/min continuous infusion"}, "[16]": {"settings": "age 12 weeks, 0.01 μg/min continuous infusion"}, "[17]": {"settings": "age 13 weeks, 0.001 μg/min continuous infusion"}, "[18]": {"settings": "age 13 weeks, 0.01 μg/min continuous infusion"}}, "note": "*: point of attachment. p‑methylhippuroyl = Cc1ccc(C(=O)NCC(=O)*)cc1"}
{"substance": "p-methyl hippuroyl Leu(27) (1-44)OH hGHRH ({p‑methylhippuroyl}-YADAIFTNSYRKVLGQLSARKLLQDILSRQQGESNQERGARARL-OH) [GHRH Analog, functional analog of GHRH disclosed in EP 511 003, agent capable of stimulating growth hormone release]", "values": [{"measurement": "Plasma Glucose, oral glucose tolerance test", "setting": "[1]; time 0 min", "value": 104.2, "unit": "mg/dL"}, {"measurement": "Plasma Insulin, oral glucose tolerance test", "setting": "[1]; time 0 min", "value": 1.26, "unit": "ng/mL"}, {"measurement": "Plasma Glucose, oral glucose tolerance test", "setting": "[1]; time 30 min", "value": 148.4, "unit": "mg/dL"}, {"measurement": "Plasma Insulin, oral glucose tolerance test", "setting": "[1]; time 30 min", "value": 1.64, "unit": "ng/mL"}, {"measurement": "Plasma Glucose, oral glucose tolerance test", "setting": "[1]; time 60 min", "value": 154.8, "unit": "mg/dL"}, {"measurement": "Plasma Insulin, oral glucose tolerance test", "setting": "[1]; time 60 min", "value": 1.92, "unit": "ng/mL"}, {"measurement": "Plasma Glucose, oral glucose tolerance test", "setting": "[1]; time 120 min", "value": 148.1, "unit": "mg/dL"}, {"measurement": "Plasma Insulin, oral glucose tolerance test", "setting": "[1]; time 120 min", "value": 1.41, "unit": "ng/mL"}, {"measurement": "AUC, area under the plasma glucose vs. time curve", "setting": "[1]; trapezoidal method", "value": "16,833.80 mg. min/dL"}, {"measurement": "AUC, area under the plasma insulin vs. time curve", "setting": "[1]; trapezoidal method", "value": 196.25, "unit": "ng·min/mL"}, {"measurement": "Total Body Mass, final weight", "setting": "[2]; 0.001 μg/min continuous sc infusion from 6 to 14 weeks of age", "value": 327.06, "unit": "g"}, {"measurement": "Epididymal Fat weight", "setting": "[2]; 0.001 μg/min infusion", "value": 0.25, "unit": "g"}, {"measurement": "Lean Mass, final weight", "setting": "[2]; 0.001 μg/min infusion", "value": 327.06, "unit": "g"}, {"measurement": "Total Body Mass, final weight", "setting": "[2]; 0.01 μg/min continuous sc infusion from 6 to 14 weeks of age", "value": 388.16, "unit": "g"}, {"measurement": "Epididymal Fat weight", "setting": "[2]; 0.01 μg/min infusion", "value": 0.33, "unit": "g"}, {"measurement": "Lean Mass, final weight", "setting": "[2]; 0.01 μg/min infusion", "value": 388.16, "unit": "g"}, {"measurement": "Mean Plasma Glucose", "setting": "[2]; [3]", "value": 139.99, "unit": "mg/dL"}, {"measurement": "Mean Plasma Insulin", "setting": "[2]; [3]", "value": 9.81, "unit": "ng/mL"}, {"measurement": "Mean Plasma Glucose", "setting": "[2]; [4]", "value": 139.86, "unit": "mg/dL"}, {"measurement": "Mean Plasma Insulin", "setting": "[2]; [4]", "value": 11.21, "unit": "ng/mL"}, {"measurement": "Mean Plasma Glucose", "setting": "[2]; [5]", "value": 155.34, "unit": "mg/dL"}, {"measurement": "Mean Plasma Insulin", "setting": "[2]; [5]", "value": 23.91, "unit": "ng/mL"}, {"measurement": "Mean Plasma Glucose", "setting": "[2]; [6]", "value": 148.68, "unit": "mg/dL"}, {"measurement": "Mean Plasma Insulin", "setting": "[2]; [6]", "value": 24.76, "unit": "ng/mL"}, {"measurement": "Mean Plasma Glucose", "setting": "[2]; [7]", "value": 183.41, "unit": "mg/dL"}, {"measurement": "Mean Plasma Insulin", "setting": "[2]; [7]", "value": 27.33, "unit": "ng/mL"}, {"measurement": "Mean Plasma Glucose", "setting": "[2]; [8]", "value": 165.01, "unit": "mg/dL"}, {"measurement": "Mean Plasma Insulin", "setting": "[2]; [8]", "value": 26.81, "unit": "ng/mL"}, {"measurement": "Mean Plasma Glucose", "setting": "[2]; [9]", "value": 331.91, "unit": "mg/dL"}, {"measurement": "Mean Plasma Insulin", "setting": "[2]; [9]", "value": 21.11, "unit": "ng/mL"}, {"measurement": "Mean Plasma Glucose", "setting": "[2]; [10]", "value": 215.49, "unit": "mg/dL"}, {"measurement": "Mean Plasma Insulin", "setting": "[2]; [10]", "value": 24.23, "unit": "ng/mL"}, {"measurement": "Mean Plasma Glucose", "setting": "[2]; [11]", "value": 389.18, "unit": "mg/dL"}, {"measurement": "Mean Plasma Insulin", "setting": "[2]; [11]", "value": 20.18, "unit": "ng/mL"}, {"measurement": "Mean Plasma Glucose", "setting": "[2]; [12]", "value": 235.91, "unit": "mg/dL"}, {"measurement": "Mean Plasma Insulin", "setting": "[2]; [12]", "value": 27.85, "unit": "ng/mL"}, {"measurement": "Mean Plasma Glucose", "setting": "[2]; [13]", "value": 392.65, "unit": "mg/dL"}, {"measurement": "Mean Plasma Insulin", "setting": "[2]; [13]", "value": 20.98, "unit": "ng/mL"}, {"measurement": "Mean Plasma Glucose", "setting": "[2]; [14]", "value": 232.89, "unit": "mg/dL"}, {"measurement": "Mean Plasma Insulin", "setting": "[2]; [14]", "value": 30.05, "unit": "ng/mL"}, {"measurement": "Mean Plasma Glucose", "setting": "[2]; [15]", "value": 496.75, "unit": "mg/dL"}, {"measurement": "Mean Plasma Insulin", "setting": "[2]; [15]", "value": 21.48, "unit": "ng/mL"}, {"measurement": "Mean Plasma Glucose", "setting": "[2]; [16]", "value": 317.11, "unit": "mg/dL"}, {"measurement": "Mean Plasma Insulin", "setting": "[2]; [16]", "value": 36.45, "unit": "ng/mL"}, {"measurement": "Mean Plasma Glucose", "setting": "[2]; [17]", "value": 446.03, "unit": "mg/dL"}, {"measurement": "Mean Plasma Insulin", "setting": "[2]; [17]", "value": 16.29, "unit": "ng/mL"}, {"measurement": "Mean Plasma Glucose", "setting": "[2]; [18]", "value": 248.28, "unit": "mg/dL"}, {"measurement": "Mean Plasma Insulin", "setting": "[2]; [18]", "value": 29.92, "unit": "ng/mL"}, {"measurement": "Mean Plasma Glucose", "setting": "[2]; age 14 weeks, 0.001 μg/min continuous infusion", "value": 461.40, "unit": "mg/dL"}, {"measurement": "Mean Plasma Glucose", "setting": "[2]; age 14 weeks, 0.01 μg/min continuous infusion", "value": 229.36, "unit": "mg/dL"}]}
